Test results from article PMC10891904 (Pharmaceuticals, 2024).

What was measured:
[1] = molecular target: T1, rabbit 5-LOX (Oryctolagus cuniculus, UniProt G1SNX0); experiment: In vitro 5-LOX inhibition assay (enzyme kit); assay type: biochemical; details: mean of three values
T1 construct: purchased Cayman Chemical 560131
T1 sequence (G1SNX0 1-674): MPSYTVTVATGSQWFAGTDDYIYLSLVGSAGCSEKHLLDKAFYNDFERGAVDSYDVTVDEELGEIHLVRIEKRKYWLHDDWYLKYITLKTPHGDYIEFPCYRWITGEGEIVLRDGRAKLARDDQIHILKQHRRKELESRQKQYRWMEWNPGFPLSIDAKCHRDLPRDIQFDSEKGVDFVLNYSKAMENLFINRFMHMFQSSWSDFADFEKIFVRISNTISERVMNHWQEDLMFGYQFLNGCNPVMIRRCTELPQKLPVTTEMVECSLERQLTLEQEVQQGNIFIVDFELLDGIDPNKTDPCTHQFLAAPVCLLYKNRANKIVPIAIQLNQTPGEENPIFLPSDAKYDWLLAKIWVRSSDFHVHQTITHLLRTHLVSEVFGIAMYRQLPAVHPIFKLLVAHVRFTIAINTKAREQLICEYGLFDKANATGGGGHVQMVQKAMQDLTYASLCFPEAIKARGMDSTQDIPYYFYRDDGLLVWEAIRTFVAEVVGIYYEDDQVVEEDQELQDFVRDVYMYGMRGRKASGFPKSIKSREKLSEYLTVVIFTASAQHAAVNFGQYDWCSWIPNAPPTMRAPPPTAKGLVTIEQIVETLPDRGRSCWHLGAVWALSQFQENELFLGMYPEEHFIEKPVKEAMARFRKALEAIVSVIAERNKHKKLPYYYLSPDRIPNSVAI

[2] = tested on: HepG2 (human liver cancer) cells; experiment: Cell viability, MTT assay, HepG2; assay type: cell-based
Method: (§1) HepG2, MCF7, and THLE2 cells were initially seeded at a density of 1 × 10^4 cells per well (100 μL per well) in DMEM medium. These cultures were then incubated at 37 °C in a 5% CO2 environment for 24 h to attain confluency levels ranging from 70% to 80%. […] The cells were allowed to culture for an additional 24 h.
(§2) After the incubation period, 10 μL of a 12 mM MTT stock solution (5 mg/mL MTT in sterile PBS) was introduced into each well. The plate was incubated for 4 h at 37 °C. Following this, the MTT solution was removed, and the purple formazan crystals that had developed at the well bottoms were dissolved by adding 100 μL of DMSO, allowing for a 20 min incubation. A negative control was included, which involved adding 10 μL of the MTT stock solution to 100 μL of medium alone.
(§3) The absorbance at 570 nm was subsequently measured using an ELISA reader (StatFax-2100, Awareness Technology, Inc., Palm City, FL, USA). […] Sigmoidal and dose-dependent curves were created to visualize the experimental results. These assays were conducted in triplicate and were repeated in three independent experiments.

[3] = tested on: THLE2 (healthy human liver) cells; experiment: Cell viability, MTT assay, THLE2; assay type: cell-based
Method: as §1, §2, §3

[4] = tested on: COX-1/COX-2/5-LOX; details: from experimental IC50
[5] = tested on: LPS-inflamed HepG2 cells; details: 1/10 of IC50, LPS 1 μg/mL, 24 h
Method: (§4) HepG2, MCF7, and THLE2 cells were initially seeded in a culture medium comprising DMEM supplemented with 10% FCS and 1% penicillin/streptomycin solution. These cultures were maintained at 37 °C in a 5% CO2 environment. The culture medium was refreshed twice a week, and when the cell cultures reached approximately 80% confluence, they were subcultured after trypsinization (0.05%, w/v). To mitigate mitogenic effects, the cells were pre-cultured in serum-free DMEM for a minimum of 4 h.
(§5) To induce inflammation, 1 μg/mL of LPS was added to the cultures, as previously described. Subsequently, the cells were allowed to incubate for a duration of 24 h.
(§6) Inflammatory marker levels, including TNFα, IL1b, COX-1, COX-2, and 5-LOX, were quantified following established procedures. In short, the cells were seeded at a density of 5 × 10^4 cells per well in flat-bottomed 96-well plates. […] The cells were then incubated at 37 °C for a period of 24 h.
(§7) After incubation, the culture medium was carefully collected into micro-centrifuge tubes and subjected to centrifugation at 1500 rpm for 10 min. The resulting supernatant was transferred to new micro-centrifuge tubes, and the levels of TNFα, IL1b, COX-1, COX-2, and 5-LOX were determined using an ELISA kit (TNFα, IL1b, COX-1, COX-2, and 5-LOX were determined using enzyme-linked immunoassay (ELISA) kits from Sigma Aldrich (Saint Louis, MO, USA), Abcam (Cambridge, UK), and Aviva Systems Biology (San Diego, CA, USA).

[6] = tested on: LPS-inflamed THLE2 cells; details: 1/10 of IC50, LPS 1 μg/mL, 24 h, G3 vs G2
Method: as §4, §5, §6, §7

[7] = tested on: LPS-inflamed MCF7 cells; details: 1/10 of IC50, LPS 1 μg/mL, 24 h, G3 vs G2
Method: as §4, §5, §6, §7

[8] = tested on: LPS-inflamed HepG2 cells; details: 1/10 of LC50, LPS 1 µg/mL, 24 h, G3 relative to G2
Method: (§8) The levels of malondialdehyde (MDA), superoxide dismutase (SOD), catalase (CAT), and glutathione peroxidase (GPX) were quantified using commercial kits, following established protocols. […] Subsequently, the cells were exposed to 1 µg/mL of LPS for 24 h.
(§9) After this incubation period, the cells were rinsed with PBS, harvested from the plates, and suspended in 1 mL of ice-cold PBS (0.1 M, containing 0.05 mM EDTA). The cell suspension was homogenized, and the resulting homogenate was then subjected to centrifugation at 4000× g for 10 min at 4 °C. The obtained supernatants were preserved at −80 °C until they were ready for analysis. The protein concentration in each of the supernatant samples was determined using the Bradford assay.

[9] = tested on: LPS-inflamed THLE2 cells; details: 1/10 of LC50, LPS 1 µg/mL, 24 h, G3 compared to G2
Method: as §8, §9

[10] = tested on: LPS-inflamed MCF7 cells; details: 1/10 of LC50, LPS 1 µg/mL, 24 h, G3 relative to G2
Method: as §8, §9

[11] = molecular target: human recombinant COX-2 (Homo sapiens, UniProt P35354); experiment: biochemical
Sequence of human recombinant COX-2 (P35354 18-604): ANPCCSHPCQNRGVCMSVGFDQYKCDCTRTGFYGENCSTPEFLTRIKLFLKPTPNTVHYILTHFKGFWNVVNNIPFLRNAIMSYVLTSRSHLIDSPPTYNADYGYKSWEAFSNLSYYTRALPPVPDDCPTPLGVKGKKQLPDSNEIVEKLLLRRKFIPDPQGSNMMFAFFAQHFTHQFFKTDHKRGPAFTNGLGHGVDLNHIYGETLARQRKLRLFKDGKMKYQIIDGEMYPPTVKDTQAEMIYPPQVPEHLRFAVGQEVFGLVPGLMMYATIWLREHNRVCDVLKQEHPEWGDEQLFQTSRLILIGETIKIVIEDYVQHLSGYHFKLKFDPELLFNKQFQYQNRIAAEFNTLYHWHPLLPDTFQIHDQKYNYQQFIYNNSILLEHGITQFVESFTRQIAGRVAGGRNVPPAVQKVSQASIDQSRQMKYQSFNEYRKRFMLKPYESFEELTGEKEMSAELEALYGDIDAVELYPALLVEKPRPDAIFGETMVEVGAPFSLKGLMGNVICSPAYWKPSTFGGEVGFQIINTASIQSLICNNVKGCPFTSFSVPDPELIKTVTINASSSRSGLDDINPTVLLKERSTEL

[12] = tested on: LPS-inflamed HepG2 cells; details: qPCR, β-actin reference, G3 vs G2
Method: as §4, §5
(§10) To isolate total RNA from HepG2, MCF7, and THLE2 cells, the RNeasy Mini kit was employed in accordance with the manufacturer’s instructions and established methods. Subsequently, cDNA was synthesized from […] of the total RNA using Quantiscript reverse transcriptase. The resulting cDNA served as a template for evaluating the relative expression of target gene mRNAs, with β-actin serving as an internal reference. To amplify the isolated cDNA, 2X Maxima SYBR Green/ROX qPCR Master Mix was used, following the manufacturer’s protocol, and specific gene primers designed for the purpose.
(§11) The reaction volume and qPCR thermal conditions were consistent with those previously described. Upon completion of the final cycle, the temperature was increased from 60 to 95 °C to generate a melt curve. The relative change in gene expression was presented as a fold change, determined using quantities at the critical threshold (Ct) and the 2^−∆∆Ct method (Table 5).

[13] = tested on: LPS-inflamed THLE2 cells; details: qPCR, β-actin reference, G3 vs G2
Method: as §4, §5, §10, §11

[14] = tested on: LPS-inflamed MCF7 cells; details: qPCR, β-actin reference, G3 vs G2
Method: as §4, §5, §10, §11

[15] = molecular target: ovine COX-1 (Ovis aries, UniProt P05979); experiment: biochemical
Sequence of ovine COX-1 (P05979 25-600): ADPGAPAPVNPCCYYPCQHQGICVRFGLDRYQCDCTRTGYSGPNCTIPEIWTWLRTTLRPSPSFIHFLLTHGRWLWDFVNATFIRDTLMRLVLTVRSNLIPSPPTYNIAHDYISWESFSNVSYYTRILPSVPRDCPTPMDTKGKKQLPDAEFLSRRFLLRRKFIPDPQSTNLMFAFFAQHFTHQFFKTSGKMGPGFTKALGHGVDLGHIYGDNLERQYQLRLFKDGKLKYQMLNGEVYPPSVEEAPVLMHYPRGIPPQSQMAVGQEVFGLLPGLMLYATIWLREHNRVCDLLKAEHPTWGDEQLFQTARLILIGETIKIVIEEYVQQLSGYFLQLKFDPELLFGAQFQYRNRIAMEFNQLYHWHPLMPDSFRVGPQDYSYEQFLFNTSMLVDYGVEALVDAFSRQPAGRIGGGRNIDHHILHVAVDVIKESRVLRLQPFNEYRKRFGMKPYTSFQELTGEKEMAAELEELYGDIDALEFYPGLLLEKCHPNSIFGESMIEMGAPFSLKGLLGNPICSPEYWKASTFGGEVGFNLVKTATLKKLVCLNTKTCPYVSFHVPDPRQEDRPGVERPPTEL

[16] = tested on: MCF7 (human breast cancer) cells; experiment: Cell viability, MTT assay, MCF7; assay type: cell-based; details: 24 h
Method: as §1, §2, §3

Q: How did the IC50 [1] turn out when Cc1ccc(-c2cc(C(F)(F)F)nn2-c2ccc(S(N)(=O)=O)cc2)cc1 [Celecoxib] was run?
A: Its IC50 is 16.7 µM.

Q: How did the IC50 ([2]; 24 h) turn out when N.N.[Cl][Pt][Cl] [Cisplatin] was run?
A: Its IC50 is 66.9 ± 1.8 µM.

Q: And the IC50 ([3]; 24 h)?
A: The IC50 was 2140 ± 95.3 µM.

Q: What does the source list for Nc1ccc(S(=O)(=O)Nc2ncccn2)cc1 [Sulfadiazine]?
A: experimental 5-LOX/COX-1 selectivity [4]: 1; experimental COX-2/COX-1 selectivity [4]: 3.6; IC50 ([2]; Homo sapiens, HepG2, 24 h): 246 ± 4.1 µM; IC50 ([3]; Homo sapiens, THLE-2, 24 h): 4160 ± 90.5 µM; COX-2 level ([5]; G3 vs G2): significantly reduced; IL1b level ([5]; G3 vs G2): significantly reduced; TNFα level ([5]; G3 vs untreated LPS-inflamed cells (G2)): significantly reduced; 5-LOX level [6]: significantly reduced; COX-2 level [6]: significantly reduced; IL1b level [6]: significantly reduced; TNFα level [6]: significantly reduced; COX-2 level [7]: significantly reduced; IL1b level [7]: significantly reduced; TNFα level [7]: significantly reduced; CAT levels [8]: increased levels; GPX levels [8]: increased levels; MDA levels [8]: significant augmentation; CAT levels [9]: significant elevation; GPX levels [9]: significant elevation; MDA levels [9]: substantial reduction; SOD levels [9]: significant elevation; CAT levels [10]: increased levels; MDA levels [10]: significant augmentation; IC50 [11]: 5.27 µM; 5-LOX gene expression [12]: significantly blunted; COX-1 gene expression [12]: significantly blunted; COX-2 gene expression [12]: significantly blunted; IL1b gene expression [12]: significantly blunted; TNFα gene expression [12]: significantly blunted; 5-LOX gene expression [13]: significantly blunted; COX-1 gene expression [13]: not significant; COX-2 gene expression [13]: significantly blunted; IL1b gene expression [13]: significantly blunted; TNFα gene expression [13]: significantly blunted; 5-LOX gene expression [14]: significantly blunted; COX-1 gene expression [14]: significantly blunted; COX-2 gene expression [14]: significantly blunted; IL1b gene expression [14]: significantly blunted; TNFα gene expression [14]: significantly blunted; IC50 [15]: 18.4 µM; IC50 [1]: 19.1 µM; IC50 [16]: 216 ± 3.8 µM
